Test results as given in US20250325552A1, “SUBSTITUTED THIADIAZOLYL DERIVATIVES AS DNA POLYMERASE THETA INHIBITORS” (IDEAYA Biosciences, Inc., priority 2020, published 2025).

Each compound was assayed against Polθ theta (1-899) (hPolQ) (Homo sapiens (Human), UniProt O75417) (assay: Biological Assay 1: Polθ ATPase activity, NADH oxidation-coupled enzymatic assay (10 nM enzyme, 30 min)). Conditions: Polθ (1-899) 10 nM, 100 μM ATP, 300 nM dT50 ssDNA; Examples 1 to 268; read-out: ATPase NADH coupling:Standard Screening:hPolQ IC50.
Chain of Polθ theta (1-899) (hPolQ) (O75417 1-899): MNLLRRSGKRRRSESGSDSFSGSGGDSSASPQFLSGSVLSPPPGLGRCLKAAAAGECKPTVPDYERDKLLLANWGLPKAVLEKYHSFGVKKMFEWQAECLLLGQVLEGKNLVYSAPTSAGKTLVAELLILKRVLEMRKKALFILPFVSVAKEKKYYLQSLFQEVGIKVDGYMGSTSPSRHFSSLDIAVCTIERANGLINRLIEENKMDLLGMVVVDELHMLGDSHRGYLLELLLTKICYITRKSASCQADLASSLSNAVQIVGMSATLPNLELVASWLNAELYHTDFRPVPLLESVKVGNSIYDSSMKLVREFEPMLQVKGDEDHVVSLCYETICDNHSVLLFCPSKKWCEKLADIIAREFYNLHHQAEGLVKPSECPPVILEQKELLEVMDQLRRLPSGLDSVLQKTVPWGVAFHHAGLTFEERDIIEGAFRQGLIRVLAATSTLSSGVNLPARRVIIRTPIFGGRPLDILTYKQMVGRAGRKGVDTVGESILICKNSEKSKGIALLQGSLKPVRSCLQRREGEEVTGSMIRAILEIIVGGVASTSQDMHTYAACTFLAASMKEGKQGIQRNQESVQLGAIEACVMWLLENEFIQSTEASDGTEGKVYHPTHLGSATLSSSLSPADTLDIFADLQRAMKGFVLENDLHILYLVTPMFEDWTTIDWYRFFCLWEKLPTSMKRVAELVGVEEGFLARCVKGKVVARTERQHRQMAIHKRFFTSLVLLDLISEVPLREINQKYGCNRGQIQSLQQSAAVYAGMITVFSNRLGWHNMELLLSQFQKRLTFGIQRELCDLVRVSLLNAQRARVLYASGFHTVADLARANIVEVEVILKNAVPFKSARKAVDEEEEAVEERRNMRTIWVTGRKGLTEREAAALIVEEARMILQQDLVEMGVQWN
Format: biochemical
Summary of the method: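 Polθ (1-899) at 10 nM was preincubated with compound for 15 min at room temperature in 20 mM Tris pH 7.80, 80 mM KCl, 10 mM MgCl2. An equal volume of 100 μM ATP, 300 nM dT50 ssDNA and a PK/LDH–NADH coupling system was then added. A340 was read each minute for 30 min. IC50 came from rate slopes over 10-point series with a four-parameter fit.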
`Cc1cc(-c2ccccc2OC(F)F)c(C(=O)Nc2nnc(OCc3ccc(CO)cn3)s2)cn1` [Example 17, 4-(2-(difluoromethoxy)phenyl)-N-(5-((5-(hydroxymethyl)pyridin-2-yl)methoxy)-1,3,4-thiadiazol-2-yl)-6-methylpyridine-3-carboxamide] showed an IC50 of no more than 200 nM. `COc1cnc(Cl)cc1-c1cc(C)ncc1C(=O)Nc1nnc(OC[C@H]2CC[C@H](O)CC2)s1` [Example 129, 2′-chloro-N-(5-(((1r,4r)-4-hydroxycyclohexyl)methoxy)-1,3,4-thiadiazol-2-yl)-5′-methoxy-6-methyl-[4,4′-bipyridine]-3-carboxamide] gave an IC50 of no more than 200 nM. In the case of `COc1cnc(Cl)cc1-c1cc(C)ncc1C(=O)Nc1nnc(OC[C@@H]2CO[C@H](C)C2)s1` (single isomer, unassigned) [Example 253], the IC50 is reported as no more than 200 nM. In the case of `COc1cccc(F)c1-c1cc(C)ncc1C(=O)Nc1nnc(OCC23CC(C(C)(C)O)(C2)C3)s1` [Example 103, 4-(2-fluoro-6-methoxyphenyl)-N-(5-((3-(2-hydroxypropan-2-yl)bicyclo(1.1.1)pentan-1-yl)methoxy)-1,3,4-thiadiazol-2-yl)-6-methylpyridine-3-carboxamide], the IC50 is reported as no more than 200 nM. Work on `COc1cnc(Cl)cc1-c1cc(C)ncc1C(=O)Nc1nnc(OC[C@H]2COCCO2)s1` [Example 187, (R)—N-(5-((1,4-dioxan-2-yl)methoxy)-1,3,4-thiadiazol-2-yl)-2′-chloro-5′-methoxy-6-methyl-(4,4′-bipyridine)-3-carboxamide] yielded an IC50 of no more than 200 nM. `COc1cccc(F)c1-c1cc(C)ncc1C(=O)Nc1nnc(OCc2ccc(S(C)(=O)=O)cn2)s1` [Example 24, 4-(2-fluoro-6-methoxyphenyl)-6-methyl-N-(5-((5-(methylsulfonyl)pyridin-2-yl)methoxy)-1,3,4-thiadiazol-2-yl)nicotinamide] showed an IC50 of no more than 200 nM. In the case of `COc1cnc(Cl)cc1-c1cc(C)ncc1C(=O)Nc1nnc(OCC2COC(C)C2)s1` (stereo not shown) [Example 262, 2′-chloro-5′-methoxy-6-methyl-N-(5-((5-methyltetrahydrofuran-3-yl)methoxy)-1,3,4-thiadiazol-2-yl)-(4,4′-bipyridine)-3-carboxamide], the IC50 is reported as no more than 200 nM. `COc1ccc(Cl)cc1-c1cc(C)ncc1C(=O)Nc1nnc(OCc2ccc(CO)cn2)s1` [Example 39, 4-(5-chloro-2-methoxyphenyl)-N-(5-((5-(hydroxymethyl)pyridin-2-yl)methoxy)-1,3,4-thiadiazol-2-yl)-6-methylpyridine-3-carboxamide] was tested, and the IC50 was no more than 200 nM. `COc1cnc(Cl)cc1-c1cc(C)ncc1C(=O)Nc1nnc(OC[C@]23COC[C@H]2C3)s1` (single isomer, unassigned) [Example 231] gave an IC50 of no more than 200 nM. Compound `COc1cccc(F)c1-c1cc(C)ncc1C(=O)Nc1nnc(OCC23CCC(O)(CC2)C3)s1` [Example 112, 4-(2-fluoro-6-methoxyphenyl)-N-(5-((4-hydroxybicyclo(2.2.1)heptan-1-yl)methoxy)-1,3,4-thiadiazol-2-yl)-6-methylpyridine-3-carboxamide] has an IC50 of no more than 200 nM. Compound `COc1ccc(C)cc1-c1cc(C)ncc1C(=O)Nc1nnc(OCc2ccc(Cl)cn2)s1` [Example 44, N-(5-((5-chloropyridin-2-yl)methoxy)-1,3,4-thiadiazol-2-yl)-4-(2-methoxy-5-methylphenyl)-6-methylpyridine-3-carboxamide] has an IC50 of no more than 200 nM. `COC(C)(C)c1ccc(COc2nnc(NC(=O)c3cnc(C)cc3-c3c(F)cccc3OC(F)F)s2)nc1` [Example 124, 4-(2-(difluoromethoxy)-6-fluorophenyl)-N-(5-((5-(2-methoxypropan-2-yl)pyridin-2-yl)methoxy)-1,3,4-thiadiazol-2-yl)-6-methylpyridine-3-carboxamide] was tested, and the IC50 was no more than 200 nM. `COc1cnc(C)cc1-c1cc(C)ncc1C(=O)Nc1nnc(OCc2ccc(C(=O)O)cn2)s1` [Example 90, 6-(((5-(5′-methoxy-2′,6-dimethyl-(4,4′-bipyridine)-3-amido)-1,3,4-thiadiazol-2-yl)oxy)methyl)pyridine-3-carboxylic acid] gave an IC50 of no more than 200 nM. For `COc1cnc(Cl)cc1-c1cc(C)ncc1C(=O)Nc1nnc(OCC23CC(O)(C2)C3)s1` [Example 99, 2′-chloro-N-(5-((3-hydroxybicyclo(1.1.1)pentan-1-yl)methoxy)-1,3,4-thiadiazol-2-yl)-5′-methoxy-6-methyl-(4,4′-bipyridine)-3-carboxamide], the IC50 was no more than 200 nM. For `COc1cccc(F)c1-c1cc(C)ncc1C(=O)Nc1nnc(OCC23CC(C#N)(C2)C3)s1` [Example 95, N-(5-((3-cyanobicyclo(1.1.1)pentan-1-yl)methoxy)-1,3,4-thiadiazol-2-yl)-4-(2-fluoro-6-methoxyphenyl)-6-methylpyridine-3-carboxamide], the IC50 was no more than 200 nM. `COc1cnc(C)cc1-c1cc(C)ncc1C(=O)Nc1nnc(OCc2ccc(C(C)(C)OC)cn2)s1` [Example 126, 5′-methoxy-N-(5-((5-(2-methoxypropan-2-yl)pyridin-2-yl)methoxy)-1,3,4-thiadiazol-2-yl)-2′,6-dimethyl-(4,4′-bipyridine)-3-carboxamide] showed an IC50 of no more than 200 nM. `COc1cnc(Cl)cc1-c1cc(C)ncc1C(=O)Nc1nnc(OC[C@H]2CC[C@H](F)CC2)s1` [Example 197, 2′-chloro-N-(5-(((1r,4r)-4-fluorocyclohexyl)methoxy)-1,3,4-thiadiazol-2-yl)-5′-methoxy-6-methyl-(4,4′-bipyridine)-3-carboxamide] gave an IC50 of no more than 200 nM. `COc1cccc(F)c1-c1cc(C)ncc1C(=O)Nc1nnc(OCc2ccc(C3(O)CC3)cn2)s1` [Example 48, 4-(2-fluoro-6-methoxyphenyl)-N-(5-((5-(1-hydroxycyclopropyl)pyridin-2-yl)methoxy)-1,3,4-thiadiazol-2-yl)-6-methylnicotinamide] gave an IC50 of no more than 200 nM. For `COc1cccc(F)c1-c1cc(C)ncc1C(=O)Nc1nnc(OCc2ccc([C@H](C)O)cn2)s1` [Example 40, 4-(2-fluoro-6-methoxyphenyl)-N-(5-((5-((S)-1-hydroxyethyl)pyridin-2-yl)methoxy)-1,3,4-thiadiazol-2-yl)-6-methylnicotinamide], the IC50 was no more than 200 nM. `COc1cnc(Cl)cc1-c1cc(C)ncc1C(=O)Nc1nnc(OC[C@@H]2CC[C@@H](O)C2)s1` (single isomer, unassigned) [Example 209] gave an IC50 of no more than 200 nM. `COc1cnc(C)cc1-c1cc(C)ncc1C(=O)Nc1nnc(OCc2ccc(C(C)(C)C#N)cn2)s1` [Example 83, N-(5-((5-(2-cyanopropan-2-yl)pyridin-2-yl)methoxy)-1,3,4-thiadiazol-2-yl)-5′-methoxy-2′,6-dimethyl-(4,4′-bipyridine)-3-carboxamide] showed an IC50 of no more than 200 nM. `COc1cnc(Cl)cc1-c1cc(C)ncc1C(=O)Nc1nnc(OCc2ccc(C3(C)COC3)cn2)s1` [Example 86, 2′-chloro-5′-methoxy-6-methyl-N-(5-((5-(3-methyloxetan-3-yl)pyridin-2-yl)methoxy)-1,3,4-thiadiazol-2-yl)-[4,4′-bipyridine]-3-carboxamide] gave an IC50 of no more than 200 nM. Work on `COc1cnc(Cl)cc1-c1cc(C)ncc1C(=O)Nc1nnc(OCC2CC3CC2CN3C(=O)C(C)C)s1` (stereo not shown) [Example 156, 2′-chloro-N-(5-((2-isobutyryl-2-azabicyclo[2.2.1]heptan-5-yl)methoxy)-1,3,4-thiadiazol-2-yl)-5′-methoxy-6-methyl-[4,4′-bipyridine]-3-carboxamide] yielded an IC50 of no more than 200 nM. Compound `COc1ccccc1-c1cc(C)ncc1C(=O)Nc1nnc(O[C@@H](C)c2ccc(Cl)cn2)s1` [Example 11, (S)—N-(5-(1-(5-chloropyridin-2-yl)ethoxy)-1,3,4-thiadiazol-2-yl)-4-(2-methoxyphenyl)-6-methylnicotinamide] has an IC50 of no more than 200 nM. `COc1cnc(Cl)cc1-c1cc(C)ncc1C(=O)Nc1nnc(OCC2COC(C)(C)C2)s1` (stereo in doubt) [Example 188, (R)-2′-chloro-N-(5-((5,5-dimethyltetrahydrofuran-3-yl)methoxy)-1,3,4-thiadiazol-2-yl)-5′-methoxy-6-methyl-(4,4′-bipyridine)-3-carboxamide] showed an IC50 of no more than 200 nM. With `COc1cnc(Cl)cc1-c1cc(C)ncc1C(=O)Nc1nnc(OCc2ccc3c(n2)CCOC3)s1` [Example 151, 2′-chloro-5′-methoxy-6-methyl-N-(5-(5H,7H,8H-pyrano(4,3-b)pyridin-2-ylmethoxy)-1,3,4-thiadiazol-2-yl)-(4,4′-bipyridine)-3-carboxamide] the IC50 was no more than 200 nM. `COc1ccc(Cl)cc1-c1cc(C)ncc1C(=O)Nc1nnc(OCc2ccc([S@](C)(=N)=O)cn2)s1` [Example 147, (R)-4-(5-chloro-2-methoxyphenyl)-6-methyl-N-(5-((5-(S-methylsulfonimidoyl)pyridin-2-yl)methoxy)-1,3,4-thiadiazol-2-yl)nicotinamide] was tested, and the IC50 was no more than 200 nM. `COc1cnc(Cl)cc1-c1cc(C)ncc1C(=O)Nc1nnc(OCC23CCC(O)(CC2)CC3)s1` [Example 136, 2′-chloro-N-(5-((4-hydroxybicyclo(2.2.2)octan-1-yl)methoxy)-1,3,4-thiadiazol-2-yl)-5′-methoxy-6-methyl-(4,4′-bipyridine)-3-carboxamide] gave an IC50 of no more than 200 nM. `COc1cnc(Cl)cc1-c1cc(C)ncc1C(=O)Nc1nnc(OCC2CCC2(F)F)s1` (stereo not shown) [Example 204, 2′-chloro-N-(5-((2,2-difluorocyclobutyl)methoxy)-1,3,4-thiadiazol-2-yl)-5′-methoxy-6-methyl-(4,4′-bipyridine)-3-carboxamide] gave an IC50 of no more than 200 nM. With `COc1cccc(F)c1-c1cc(C)ncc1C(=O)Nc1nnc(OCc2ccc(S(C)(=N)=O)cc2)s1` (racemic) [Example 79, 4-(2-fluoro-6-methoxyphenyl)-6-methyl-N-(5-((4-(S-methylsulfonimidoyl)benzyl)oxy)-1,3,4-thiadiazol-2-yl)nicotinamide] the IC50 was no more than 200 nM. With `COc1cnc(Cl)cc1-c1cc(C)ncc1C(=O)Nc1nnc(OCc2ccc(Cl)cn2)s1` [Example 8, 2′-chloro-N-(5-((5-chloropyridin-2-yl)methoxy)-1,3,4-thiadiazol-2-yl)-5′-methoxy-6-methyl-[4,4′-bipyridine]-3-carboxamide] the IC50 was no more than 200 nM.
